Reference: ChEMBL document CHEMBL3301464, “MMV Malaria Box anti-babesial screening”

Experiments:
[1] = (§1) MMV: Anti-babesial activity assay. Parasite pRBCs at 1% parasitemia were cultivated in 100 ul with 96-well plates at 2.5% and 5% hematocrits. The parasites were cultivated in triplicate for 4 days without replacement of the medium for each concentration of the compound.; type: functional, Babesia bovis
[2] = as §1; type: functional, Babesia bigemina
[3] = as §1; type: functional, Babesia caballi
[4] = as §1; type: functional, Babesia equi

Row | SMILES | IC50 [1] [µM] | IC50 [2] [µM] | IC50 [3] [µM] | IC50 [4] [µM]
1 | Cc1ccc(CN2CCC(C(=O)Nc3ccc(-c4cc5ccccc5[nH]4)cc3)CC2)o1 | 5.5 | 3.61 | 4.37 | 0.33
2 | COc1cccc(Nc2nc(N)c3ccccc3n2)c1 | 0.12 | 0.057 | 2.95 | 17.2
3 | Cc1ccc(F)cc1NC(=O)c1cc(Cl)ccc1Nc1ccccc1 | 18.6 | 10.2 | 2.56 | > 25
4 | COC(=O)c1ccc(C2C3=C(O)CC(c4ccc(F)cc4)CC3=Nc3ccccc3N2C(=O)c2ccccc2)cc1 (stereo unspecified) | 0.063 | 0.086 | 6.86 | 10.4
5 | OC1CCCCC1C1(NC(=S)Nc2ccccc2)CCCCC1 (stereo unspecified) | 1.41 | 0.93 | 14.1 | 5.09
6 | COc1ccc(/C=C2/SC(=Nc3ccccc3)NC2=O)cc1 | 4.91 | 1 | 13.3 | 0.1
7 | OC1=C2C(=Nc3ccccc3SC2c2ccc(Br)cc2)c2ccccc21 (stereo unspecified) | 11.1 | 15.2 | 7.95 | 12
8 | COc1cc(OC)cc(N2C(=O)N(Cc3ccc(C(C)(C)C)cc3)c3ccccc3S2(=O)=O)c1 | 1 | 0.19 | 7.54 | 13.3
9 | COc1cccc(C(=O)Nc2ccc(-c3nc4ccccc4[nH]3)cc2)c1 | 1 | 4.77 | 4.89 | 7.38
10 | CC1CCCCN1CCCNC(=O)c1ccc2c(c1)sc1nc(-c3ccc(F)cc3)cn12 (stereo unspecified) | 0.19 | 3.9 | 8.54 | 0.1
11 | COc1ccc(C(=O)NC(c2ccc(Cl)cc2Cl)c2cc(Cl)c3cccnc3c2O)cc1 (stereo unspecified) | 0.86 | 3.05 | 4.68 | 1.39
12 | COc1ccc(C(=O)C2CC2c2ccc(Cl)cc2)cc1 (stereo unspecified) | 5.97 | 6.72 | 14.6 | 16.1
13 | CCCCCCc1cc(O)c2c3c(c(=O)oc2c1)CCC(C)C3 (stereo unspecified) | 5.1 | 10 | 15.9 | 3.26
14 | CC(C)CNC(=O)c1c(N)n(CCc2ccccc2F)c2nc3ccccc3nc12 | 10 | 7.67 | 1 | 13.3
15 | Cn1c(C(=O)c2cccc3ccccc23)nc2ccccc21 | 3.73 | 12 | 0.81 | 10
16 | COc1ccc(N2CCN(C(CNC(=O)CC(C)(C)C)c3ccc4c(c3)OCO4)CC2)cc1 (stereo unspecified) | 0.79 | 0.1 | 16.1 | 0.51
17 | COc1ccc(OC)c(C2C3=C(CC(C)(C)CC3=O)N(c3ccc(Cl)c(Cl)c3)C3=C2C(=O)CC(C)(C)C3)c1 | 10 | 17.8 | 0.14 | 10.7
18 | COc1ccc(C(=O)C(CCC(CNC(C)(C)C)C(=O)c2ccc(OC)cc2)CNC(C)(C)C)cc1 (stereo unspecified) | 0.57 | 2.95 | 4.68 | 0.17
19 | COc1ccc(N2CCN(C(CNC(=O)C3CCCCC3)c3ccc4c(c3)OCO4)CC2)cc1 (stereo unspecified) | 24.9 | 7.67 | 7.67 | 13
20 | Cc1cc(N2CCN(C3CCCC3)CC2)n2c(nc3ccccc32)c1C#N | 0.75 | 0.1 | 0.38 | 0.065
21 | CCN(CC)S(=O)(=O)c1ccc(-c2csc(Nc3ccc(C)c(C)c3)n2)cc1 | 11.9 | 10 | 0.08 | 14.2
22 | CCOC(=O)C1=C(C)N=c2sc(=Cc3ccccc3O)c(=O)n2C1c1ccc(OC)c2ccccc12 (stereo unspecified) | 21.7 | 16 | 8.43 | 10
23 | CCCCCCn1c(=N)n(CC(O)COc2cccc(C)c2)c2ccccc21 (stereo unspecified) | 0.083 | 2.95 | 15.9 | 3.73
24 | COc1cc(C(=O)ON=C(N)Cc2cccc3ccccc23)cc(OC)c1OC | 13.3 | 12.5 | 5.3 | 10.1
